Columns and labels:
Format in all cases: cell-based
Gram-negative bacilli [1] = assay: Experiment Example 2: comparison of saccharides, specimen culture, Gram smear; details: 10.0% saccharide, 1.0% yeast extract, 1.6% xanthan gum (dextrin 0.5%, starch none), pH 6.2, candle jar, 37° C.
Gram-negative cocci [2] = assay: as above; details: 10.0% saccharide, 1.0% yeast extract, 1.6% xanthan gum (dextrin 0.5%, starch none), pH 6.2, candle jar, 37° C.
Gram-positive bacilli [3] = assay: as above; details: 10.0% saccharide, 1.0% yeast extract, 1.6% xanthan gum (dextrin 0.5%, starch none), pH 6.2, candle jar, 37° C.
Gram-positive cocci [4] = assay: as above; details: 10.0% saccharide, 1.0% yeast extract, 1.6% xanthan gum (dextrin 0.5%, starch none), pH 6.2, candle jar, 37° C.
[5] = tested on: vaginal secretion specimen of a patient suffering from typical bacterial vaginosis; assay: Experiment Example 2: pH of culture samples (production of acids); details: for pH values in the tube compared with the other tubes: 10% saccharide tube, after 24 or 48 hours culture; for pH, 24 hours-culture / pH, 48 hours-culture: 10.0% saccharide, 1.0% yeast extract, 1.6% xanthan gum (dextrin 0.5%, starch none), pH 6.2, candle jar, 37° C.
[6] = tested on: vaginal secretion specimen of a patient suffering from typical bacterial vaginosis; assay: Experiment Example 3: pH of culture samples (production of acids); details: 2.5% saccharide, 1.0% yeast extract, 1.6% xanthan gum, pH 6.2, candle jar, 37° C.
Protocol: (§1) • (1) The preparation of the compositions: Maltose and sucrose were used respectively to prepare the following composition according to the methods mentioned above: • A. 2.5% maltose, 1.0% yeast extract, 1.6% xanthan gum, pH adjusted to 6.2; • B. 2.5% sucrose, 1.0 yeast extract, 1.6% xanthan gum, pH adjusted to 6.2; • (2) The preparation of the test tubes: Compositions as prepared above were filled into the test tubes, with each tube containing 5 ml, sterilized, and kept until use for experiment. • (3) Specimen suspension: Vaginal secretion was taken from one of the patients suffering from typical bacterial vaginosis with a cotton swab, then the swab was washed in 2 ml sterilized Trypcase-soy Broth immediately, and thus the specimen suspension was ready. […] Then the tubes were placed in a candle jar and cultivated at 37° C. After 24 hours and 48 hours' culture, culture samples were taken respectively from each of the tubes, then the Gram smears of the samples were observed and the pH values of culture samples were tested.

Gram-negative bacilli [7] = assay: Experiment Example 4: 17.0% maltose or sucrose, specimen culture, Gram smear; details: 17.0% saccharide, 1.0% yeast extract, 1.6% xanthan gum, pH 6.2, candle jar, 37° C.
Protocol: as §1, with “• (1)The” for “• (1) The”, “composition in” for “composition according to”, “A. 17.0%” for “A. 2.5%”, “B. 17.0%” for “B. 2.5%”, “sucrose, 1.0%” for “sucrose, 1.0”, “Compositions” for “Compositions as”

Gram-negative cocci [8] = assay: as above; details: 17.0% saccharide, 1.0% yeast extract, 1.6% xanthan gum, pH 6.2, candle jar, 37° C.
Protocol: as §1, with “• (1)The” for “• (1) The”, “composition in” for “composition according to”, “A. 17.0%” for “A. 2.5%”, “B. 17.0%” for “B. 2.5%”, “sucrose, 1.0%” for “sucrose, 1.0”, “Compositions” for “Compositions as”

Gram-positive bacilli [9] = assay: as above; details: 17.0% saccharide, 1.0% yeast extract, 1.6% xanthan gum, pH 6.2, candle jar, 37° C.
Protocol: as §1, with “• (1)The” for “• (1) The”, “composition in” for “composition according to”, “A. 17.0%” for “A. 2.5%”, “B. 17.0%” for “B. 2.5%”, “sucrose, 1.0%” for “sucrose, 1.0”, “Compositions” for “Compositions as”

Gram-positive cocci [10] = assay: as above; details: 17.0% saccharide, 1.0% yeast extract, 1.6% xanthan gum, pH 6.2, candle jar, 37° C.
Protocol: as §1, with “• (1)The” for “• (1) The”, “composition in” for “composition according to”, “A. 17.0%” for “A. 2.5%”, “B. 17.0%” for “B. 2.5%”, “sucrose, 1.0%” for “sucrose, 1.0”, “Compositions” for “Compositions as”

[11] = tested on: vaginal secretion specimen of a patient suffering from typical bacterial vaginosis; assay: Experiment Example 4: pH of culture samples (production of acids); details: 17.0% saccharide, 1.0% yeast extract, 1.6% xanthan gum, pH 6.2, candle jar, 37° C.
Protocol: as §1, with “• (1)The” for “• (1) The”, “composition in” for “composition according to”, “A. 17.0%” for “A. 2.5%”, “B. 17.0%” for “B. 2.5%”, “sucrose, 1.0%” for “sucrose, 1.0”, “Compositions” for “Compositions as”

OC[C@H]1O[C@@](CO)(O[C@H]2O[C@H](CO)[C@@H](O)[C@H](O)[C@H]2O)[C@@H](O)[C@@H]1O [Sucrose, sucrose]
Bacteria G − b (Gram-negative bacilli), 24 hours-culture (Gram-negative bacilli [1]): G − b, + (1-9 bacteria per field of vision under oil-immersion lens) | Bacteria G − b (Gram-negative bacilli), 48 hours-culture (Gram-negative bacilli [1]): G − b, ++ (About 10-99 bacteria per field of vision under oil-immersion lens) | Bacteria G − c (Gram-negative cocci), 24 hours-culture (Gram-negative cocci [2]): G − c, − (No or less than one bacterium per field of version under oil-immersion lens) | Bacteria G − c (Gram-negative cocci), 48 hours-culture (Gram-negative cocci [2]): G − c, − (No or less than one bacterium per field of version under oil-immersion lens) | Bacteria G + b (Gram-positive bacilli), 48 hours-culture (Gram-positive bacilli [3]): G + b, +++ (About 100 bacteria or more per field vision under oil-immersion lens, even uncountable) | Bacteria G + c (Gram-positive cocci), 24 hours-culture (Gram-positive cocci [4]): G + c, + (1-9 bacteria per field of vision under oil-immersion lens) | Bacteria G + c (Gram-positive cocci), 48 hours-culture (Gram-positive cocci [4]): G + c, + (1-9 bacteria per field of vision under oil-immersion lens) | pH values in the tube compared with the other tubes [5]: lower than that of the other tubes | pH, 24 hours-culture [5]: 4.8-5.1 | pH, 48 hours-culture [5]: 4.6-4.8 | pH, 24 hours-culture [6]: 6.2 | pH, 48 hours-culture [6]: 6.7 | Bacteria G − b (Gram-negative bacilli), 48 hours culture (Gram-negative bacilli [7]): G − b, ++ (About 10-99 bacteria per field of vision under oil-immersion lens) | Bacteria G − c (Gram-negative cocci), 24 hours culture (Gram-negative cocci [8]): G − c, − (No or less than one bacterium per field of version under oil-immersion lens) | Bacteria G − c (Gram-negative cocci), 48 hours culture (Gram-negative cocci [8]): G − c, − (No or less than one bacterium per field of version under oil-immersion lens) | Bacteria G + b (Gram-positive bacilli), 24 hours culture (Gram-positive bacilli [9]): G + b, ++ (About 10-99 bacteria per field of vision under oil-immersion lens) | Bacteria G + b (Gram-positive bacilli), 48 hours culture (Gram-positive bacilli [9]): G + b, ++ (About 10-99 bacteria per field of vision under oil-immersion lens) | Bacteria G + c (Gram-positive cocci), 24 hours culture (Gram-positive cocci [10]): G + c, + (1-9 bacteria per field of vision under oil-immersion lens) | Bacteria G + c (Gram-positive cocci), 48 hours culture (Gram-positive cocci [10]): G + c, ++ (About 10-99 bacteria per field of vision under oil-immersion lens) | pH, 24 hours culture [11]: 6.2 | pH, 48 hours culture [11]: 5.4

OC[C@H]1O[C@H](O[C@H]2[C@H](O)[C@@H](O)[C@H](O)O[C@@H]2CO)[C@H](O)[C@@H](O)[C@@H]1O [Maltose, maltose]
Bacteria G − b (Gram-negative bacilli), 24 hours-culture (Gram-negative bacilli [1]): G − b, +++ (About 100 bacteria or more per field vision under oil-immersion lens, even uncountable) | Bacteria G − b (Gram-negative bacilli), 48 hours-culture (Gram-negative bacilli [1]): G − b, ++ (About 10-99 bacteria per field of vision under oil-immersion lens) | Bacteria G − c (Gram-negative cocci), 24 hours-culture (Gram-negative cocci [2]): G − c, − (No or less than one bacterium per field of version under oil-immersion lens) | Bacteria G − c (Gram-negative cocci), 48 hours-culture (Gram-negative cocci [2]): G − c, − (No or less than one bacterium per field of version under oil-immersion lens) | Bacteria G + b (Gram-positive bacilli), 24 hours-culture (Gram-positive bacilli [3]; 24 hours): G + b, ++ (About 10-99 bacteria per field of vision under oil-immersion lens) | Bacteria G + b (Gram-positive bacilli), 48 hours-culture (Gram-positive bacilli [3]): G + b, +++ (About 100 bacteria or more per field vision under oil-immersion lens, even uncountable) | Bacteria G + c (Gram-positive cocci), 24 hours-culture (Gram-positive cocci [4]): G + c, ++ (About 10-99 bacteria per field of vision under oil-immersion lens) | Bacteria G + c (Gram-positive cocci), 48 hours-culture (Gram-positive cocci [4]): G + c, + (1-9 bacteria per field of vision under oil-immersion lens) | pH values in the tube compared with the other tubes [5]: lower than that of the other tubes | pH, 24 hours-culture [5]: 4.6-48 | pH, 48 hours-culture [5]: 4.4-4.6 | pH, 24 hours-culture [6]: 7.0 | pH, 48 hours-culture [6]: 6.4 | Bacteria G − b (Gram-negative bacilli), 24 hours culture (Gram-negative bacilli [7]; 24 hours): G − b, + (1-9 bacteria per field of vision under oil-immersion lens) | Bacteria G − b (Gram-negative bacilli), 48 hours culture (Gram-negative bacilli [7]): G − b, ++ (About 10-99 bacteria per field of vision under oil-immersion lens) | Bacteria G − c (Gram-negative cocci), 24 hours culture (Gram-negative cocci [8]): G − c, − (No or less than one bacterium per field of version under oil-immersion lens) | Bacteria G − c (Gram-negative cocci), 48 hours culture (Gram-negative cocci [8]): G − c, − (No or less than one bacterium per field of version under oil-immersion lens) | Bacteria G + b (Gram-positive bacilli), 24 hours culture (Gram-positive bacilli [9]): G + b, +++ (About 100 bacteria or more per field vision under oil-immersion lens, even uncountable) | Bacteria G + b (Gram-positive bacilli), 48 hours culture (Gram-positive bacilli [9]): G + b, ++ (About 10-99 bacteria per field of vision under oil-immersion lens) | Bacteria G + c (Gram-positive cocci), 24 hours culture (Gram-positive cocci [10]): G + c, + (1-9 bacteria per field of vision under oil-immersion lens) | Bacteria G + c (Gram-positive cocci), 48 hours culture (Gram-positive cocci [10]): G + c, ++ (About 10-99 bacteria per field of vision under oil-immersion lens) | pH, 24 hours culture [11]: 5.4 | pH, 48 hours culture [11]: 5.1
